Assay results taken from patent publication US7855208B2, “3, 9-diazabicyclo(3.3.1)non-3-yl-aryl methanone derivatives as nicotinic acetylcholine receptor agonists” (NeuroSearch A/S, priority 2006, dated 2010).

How the values were obtained:
[1] = molecular target: T1, α7-subtype of nicotinic receptors (Rattus norvegicus, UniProt Q05941); assay: In vitro inhibition of 3H-α-bungarotoxine binding in rat brain; details: rat cerebral cortex homogenate, 3H-α-bungarotoxine 2 nM
T1 construct: Cerebral cortices from male Wistar rats (150-250 g) are homogenised; from tissue; host or cells: rat cerebral cortex membrane homogenate
T1 sequence (Q05941 23-502): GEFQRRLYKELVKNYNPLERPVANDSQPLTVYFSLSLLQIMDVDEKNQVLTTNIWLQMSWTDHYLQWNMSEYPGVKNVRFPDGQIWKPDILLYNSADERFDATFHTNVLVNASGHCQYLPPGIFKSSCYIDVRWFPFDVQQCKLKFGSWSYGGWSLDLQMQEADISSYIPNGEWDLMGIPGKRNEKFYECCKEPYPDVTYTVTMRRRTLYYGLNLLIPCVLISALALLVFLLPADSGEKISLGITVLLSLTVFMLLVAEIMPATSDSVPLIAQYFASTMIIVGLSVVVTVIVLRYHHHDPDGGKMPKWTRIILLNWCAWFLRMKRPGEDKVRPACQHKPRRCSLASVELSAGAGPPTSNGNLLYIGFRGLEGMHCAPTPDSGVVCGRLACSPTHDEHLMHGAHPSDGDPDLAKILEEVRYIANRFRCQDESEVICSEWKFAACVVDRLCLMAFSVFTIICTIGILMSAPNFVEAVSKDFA

SMILES	melting point	IC50 [1]
CN1C2CCCC1CN(C(=O)c1ccc(-c3ccc(NC(=O)c4ccccc4)cc3)o1)C2.O=C(O)/C=C/C(=O)O	246 to 252 °C	
CN1C2CCCC1CN(C(=O)c1ccc(-c3ccc(N)cc3)o1)C2 [Compound B1]	147 to 149 °C	420 nM
CCNC(=O)Nc1ccc(-c2ccc(C(=O)N3CC4CCCC(C3)N4C)o2)cc1.O=C(O)/C=C/C(=O)O	154 to 161 °C	

Further lines, with some results ahead:

melting point	SMILES	IC50 [1]
197 to 229 °C	CC(=O)Nc1ccc(-c2ccc(C(=O)N3CC4CCCC(C3)N4C)o2)cc1.O=C(O)/C=C/C(=O)O	
263 °C	CN1C2CCCC1CN(C(=O)c1ccc(-c3ccc([N+](=O)[O-])cc3)o1)C2.Cl	
